Source: US20230000842A1, “METHODS OF TREATING CARTILAGE DISORDERS THROUGH INHIBITION OF CLK AND DYRK” (SAMUMED, LLC, priority 2019, published 2023)

Key:
[1] = target: CLK2 kinase (Homo sapiens, UniProt P49760); experiment: CLK2 kinase activity assay (Z-lyte FRET); assay type: biochemical; settings: Z-lyte Ser/Thr 6 peptide, 60 μM ATP, 1 h at room temperature;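 also: FRET read-out as coumarin to fluorescein emission ratio, unphosphorylated peptide as 0% and phosphorylated peptide as 100% controls, duplicate reactions, non-linear regression fit of dose-response curves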
CLK2 kinase, sequence (P49760 whole entry): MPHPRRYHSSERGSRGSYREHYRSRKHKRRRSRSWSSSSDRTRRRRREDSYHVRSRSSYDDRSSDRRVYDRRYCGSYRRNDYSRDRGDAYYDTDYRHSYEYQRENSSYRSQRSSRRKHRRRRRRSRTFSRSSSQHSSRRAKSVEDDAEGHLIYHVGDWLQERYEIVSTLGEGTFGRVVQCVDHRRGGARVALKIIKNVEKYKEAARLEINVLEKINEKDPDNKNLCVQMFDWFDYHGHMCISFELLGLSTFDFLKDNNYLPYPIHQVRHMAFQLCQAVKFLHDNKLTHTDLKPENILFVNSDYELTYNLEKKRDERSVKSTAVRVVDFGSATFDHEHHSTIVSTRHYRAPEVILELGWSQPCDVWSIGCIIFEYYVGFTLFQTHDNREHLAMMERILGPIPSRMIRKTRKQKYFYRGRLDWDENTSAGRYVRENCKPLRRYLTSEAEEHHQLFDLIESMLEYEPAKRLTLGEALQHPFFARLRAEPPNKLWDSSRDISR

[2] = target: CLK3 kinase (Homo sapiens, UniProt P49761); experiment: CLK3 kinase activity assay (Z-lyte FRET); assay type: biochemical; settings: Z-lyte Ser/Thr 18 peptide, 156 μM ATP, 1 h at room temperature;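 also: kinase activity read as coumarin/fluorescein emission ratio by FRET, unphosphorylated peptide as 0% and phosphorylated peptide as 100% control, values from non-linear regression of dose-response curves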
CLK3 kinase, sequence (P49761 whole entry): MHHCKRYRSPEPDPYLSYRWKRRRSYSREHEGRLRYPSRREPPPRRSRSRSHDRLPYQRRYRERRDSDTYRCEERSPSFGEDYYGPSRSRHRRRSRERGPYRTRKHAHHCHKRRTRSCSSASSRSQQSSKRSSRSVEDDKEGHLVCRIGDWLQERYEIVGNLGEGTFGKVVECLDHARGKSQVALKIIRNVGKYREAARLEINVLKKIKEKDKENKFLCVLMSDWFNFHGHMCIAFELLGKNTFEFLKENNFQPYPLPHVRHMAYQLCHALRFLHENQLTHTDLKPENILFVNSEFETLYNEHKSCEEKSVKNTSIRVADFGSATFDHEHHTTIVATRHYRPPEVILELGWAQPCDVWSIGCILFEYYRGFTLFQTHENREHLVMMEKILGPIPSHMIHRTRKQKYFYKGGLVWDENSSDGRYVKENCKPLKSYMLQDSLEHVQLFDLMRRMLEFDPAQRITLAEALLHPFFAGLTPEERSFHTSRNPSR

[3] = system: primary human mesenchymal stem cells (hMSCs); experiment: Chondrogenesis screening using primary human mesenchymal stem cells; assay type: cell-based; settings: Homo sapiens, Mesenchymal stem cells, hMSC chondrogenesis; for Emax: maximum activity relative to TGF-β3 (10 ng/mL) positive control, read-out: Max. Activity as % TGF-β3 activity; for EC50: concentration required to induce 50% levels of chondrogenesis with TGF-β3 as positive control, read-out: Conc (nM) of 50% TGF-β3 activity
How it was run: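 Derived values are EC50 for 50% chondrogenesis, maximal activity and the dose giving it. These come from nodule area in passage 3–6 primary hMSCs, expressed as fold change over the mean of 3 same-plate DMSO wells, 2–3 replicates per concentration. TGF-β3 served as positive control.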

[4] = system: Wnt pathway activity (SW480 colon carcinoma cells stably expressing the Sp5-Luc reporter); experiment: Wnt pathway activity screening assay (Sp5-Luc reporter gene assay); settings: Homo sapiens, SW480, Table 4; SW480 cells stably expressing Sp5-Luc reporter, 10-point dose-response from 10 μM, 36 to 48 hours

Row | Structure (SMILES) | EC50 [1] [nM] | EC50 [2] [nM] | Emax [3] [%] | EC50 [4] [nM] | EC50 [3] [nM]
1 | CC(C)Nc1cncc(-c2cnc3[nH]nc(-c4cc5c(N6CCCCC6)nccc5[nH]4)c3c2)c1 [compound 463] | 13 | 1280 | 33.6 | 3410 | –
2 | CN(C)Cc1cncc(-c2ccc3[nH]nc(-c4cc5c(N6CCCCC6)cccc5[nH]4)c3c2)c1 [compound 464] | 13 | 3660 | 205 | 575 | 10
3 | CN(C)Cc1cncc(-c2ccc3[nH]nc(-c4cc5c(N6CCCCC6)nccc5[nH]4)c3c2)c1 [compound 465] | 2 | 293 | 220 | 4710 | –
4 | c1ncc(-c2ccc3[nH]nc(-c4cc5c(N6CCCCC6)cncc5[nH]4)c3c2)cc1CN1CCCC1 [compound 466] | 3 | 64 | 24.7 | 1840 | –
5 | FC1(F)CCN(Cc2cncc(-c3ccc4[nH]nc(-c5cc6c(N7CCCCC7)cccc6[nH]5)c4c3)c2)C1 [compound 467] | 12 | 279 | 160 | 750 | 30
6 | FC1(F)CCN(Cc2cncc(-c3ccc4[nH]nc(-c5cc6c(N7CCCCC7)ccnc6[nH]5)c4n3)c2)C1 [compound 468] | 5 | 166 | 37.6 | 5270 | –
7 | c1cc2[nH]c(-c3n[nH]c4ccc(-c5cncc(CN6CCCCC6)c5)cc34)cc2c(N2CCCCC2)n1 [compound 469] | 6 | 470 | 48.1 | 4210 | –
8 | CN1CCN(c2cncc3[nH]c(-c4n[nH]c5ccc(-c6cncc(N)c6)cc45)cc23)CC1 [compound 470] | 2 | 40 | 50.9 | 8250 | –
9 | CN1CCN(c2ccnc3[nH]c(-c4n[nH]c5ccc(-c6cncc(N)c6)cc45)cc23)CC1 [compound 471] | 3 | 89 | 50.2 | 1170 | –
10 | CN1CCN(c2nccc3[nH]c(-c4n[nH]c5cnc(-c6cncc(N)c6)cc45)cc23)CC1 [compound 472] | 10 | 1080 | 49.8 | > 10000 | –
11 | CCC(=O)Nc1cncc(-c2cc3c(-c4cc5c(N6CCN(C)CC6)nccc5[nH]4)n[nH]c3cn2)c1 [compound 473] | 3 | 285 | 70 | > 10000 | 30
12 | CC(C)C(=O)Nc1cncc(-c2cc3c(-c4cc5c(N6CCN(C)CC6)cccc5[nH]4)n[nH]c3cn2)c1 [compound 474] | 17 | 2040 | 36.4 | 700 | –
13 | CC(C)C(=O)Nc1cncc(-c2ccc3[nH]nc(-c4cc5c(N6CCN(C)CC6)nccc5[nH]4)c3c2)c1 [compound 475] | 11 | 569 | 21 | 7690 | –
14 | CC(C)C(=O)Nc1cncc(-c2cnc3[nH]nc(-c4cc5c(N6CCN(C)CC6)nccc5[nH]4)c3c2)c1 [compound 476] | 7 | 800 | 61.6 | > 10000 | 30
15 | CC(C)CC(=O)Nc1cncc(-c2ccc3[nH]nc(-c4cc5c(N6CCN(C)CC6)ccnc5[nH]4)c3n2)c1 [compound 477] | 3 | 204 | 49.5 | 3450 | –
16 | CN1CCN(c2nccc3[nH]c(-c4n[nH]c5cnc(-c6cncc(NC(=O)C(C)(C)C)c6)cc45)cc23)CC1 [compound 478] | 9 | 137 | 88.2 | 1880 | 10
17 | CN1CCN(c2cncc3[nH]c(-c4n[nH]c5ccc(-c6cncc(NC(=O)CC(C)(C)C)c6)cc45)cc23)CC1 [compound 479] | 4 | 145 | 30.8 | 3480 | –
18 | CN1CCN(c2ccnc3[nH]c(-c4n[nH]c5ccc(-c6cncc(NC(=O)CC(C)(C)C)c6)nc45)cc23)CC1 [compound 480] | 7 | 186 | 30.3 | 3870 | –
19 | CN1CCN(c2nccc3[nH]c(-c4n[nH]c5ncc(-c6cncc(NC(=O)C7CCCC7)c6)cc45)cc23)CC1 [compound 481] | 9 | 741 | 30.3 | > 10000 | –
20 | CN1CCN(c2nccc3[nH]c(-c4n[nH]c5ccc(-c6cncc(NC(=O)C7CCCCC7)c6)cc45)cc23)CC1 [compound 482] | 14 | 2380 | 37.8 | 5270 | –

Row | Structure (SMILES) | EC50 [1] [nM] | EC50 [2] [nM] | Emax [3] [%] | EC50 [4] [nM] | EC50 [3] [nM]
21 | CN1CCN(c2nccc3[nH]c(-c4n[nH]c5cnc(-c6cncc(NC(=O)C7CCCCC7)c6)cc45)cc23)CC1 [compound 483] | 8 | 303 | 60.8 | 3420 | 10
22 | CN1CCN(c2nccc3[nH]c(-c4n[nH]c5ccc(-c6cncc(NC(=O)CC7CCNCC7)c6)cc45)cc23)CC1 [compound 484] | 6 | 428 | 42.8 | > 10000 | –
23 | CN1CCN(c2cncc3[nH]c(-c4n[nH]c5ccc(-c6cncc(NC(=O)CC7CCNCC7)c6)cc45)cc23)CC1 [compound 485] | 4 | 303 | 289 | > 10000 | –
24 | CN1CCN(c2nccc3[nH]c(-c4n[nH]c5ccc(-c6cncc(NC(=O)c7ccccc7)c6)cc45)cc23)CC1 [compound 486] | 6 | 291 | 34.6 | 2140 | –
25 | CN1CCN(c2nccc3[nH]c(-c4n[nH]c5cnc(-c6cncc(NC(=O)c7ccccc7)c6)cc45)cc23)CC1 [compound 487] | 5 | 302 | 67 | 2800 | 10
26 | CN1CCN(c2ccnc3[nH]c(-c4n[nH]c5ccc(-c6cncc(NC(=O)c7ccccc7)c6)nc45)cc23)CC1 [compound 488] | 3 | 2530 | 61.8 | 6100 | 10
27 | CN1CCN(c2ccnc3[nH]c(-c4n[nH]c5cnc(-c6cncc(CNCC7CCCC7)c6)cc45)cc23)CC1 [compound 489] | 19 | 340 | 150 | > 10000 | 300
28 | CN(C)Cc1cncc(-c2cc3c(-c4cc5c(N6CCN(C)CC6)nccc5[nH]4)n[nH]c3cn2)c1 [compound 491] | 20 | 1940 | 13.9 | 3890 | –
29 | CN1CCN(c2nccc3[nH]c(-c4n[nH]c5ccc(-c6cncc(CN7CCCC7)c6)cc45)cc23)CC1 [compound 492] | 12 | 885 | 31 | 9380 | –
30 | CN1CCN(c2cccc3[nH]c(-c4n[nH]c5ccc(-c6cncc(CN7CCCCC7)c6)cc45)cc23)CC1 [compound 493] | 6 | 912 | 198 | 4970 | 100
31 | CN1CCN(c2nccc3[nH]c(-c4n[nH]c5ccc(-c6cncc(CN7CCCCC7)c6)nc45)cc23)CC1 [compound 496] | 6 | 524 | 70.8 | 4160 | 10
32 | CN1CCN(c2ccnc3[nH]c(-c4n[nH]c5ncc(-c6cn[nH]c6)cc45)cc23)CC1 [compound 497] | 5 | 678 | 20.1 | > 10000 | –
33 | CCCCC(=O)Nc1cncc(-c2ccc3[nH]nc(-c4cc5c(-c6ccoc6)cncc5[nH]4)c3c2)c1 [compound 499] | 3 | 42 | 122 | 915 | –
34 | CC(C)(C)CC(=O)Nc1cncc(-c2ccc3[nH]nc(-c4cc5c(-c6ccoc6)ccnc5[nH]4)c3c2)c1 [compound 500] | 12 | 117 | 21.2 | 890 | –
35 | O=C(CC1CCNCC1)Nc1cncc(-c2ccc3[nH]nc(-c4cc5c(-c6ccoc6)ccnc5[nH]4)c3n2)c1 [compound 501] | 11 | 418 | 102 | > 10000 | 10
36 | c1cc(-c2ccoc2)c2cc(-c3n[nH]c4ccc(-c5cncc(CNCC6CCCC6)c5)nc34)[nH]c2c1 [compound 502] | 14 | 336 | 25.3 | 3640 | –
37 | FC1(F)CCN(Cc2cncc(-c3cnc4[nH]nc(-c5cc6c(-c7ccoc7)cccc6[nH]5)c4c3)c2)C1 [compound 503] | 10 | 104 | 72.1 | 1000 | 30
38 | COc1cncc(-c2ccc3[nH]nc(-c4cc5c(-c6ccoc6)nccc5[nH]4)c3c2)c1 [compound 504] | 6 | 117 | 35.5 | 643 | –
39 | c1ncc(-c2ccc3[nH]nc(-c4cc5c(-c6ccoc6)nccc5[nH]4)c3c2)cn1 [compound 505] | 4 | 217 | 40.2 | 1910 | –
40 | CC(C)CC(=O)Nc1cncc(-c2cc3c(-c4cc5c(-c6cccs6)nccc5[nH]4)n[nH]c3cn2)c1 [compound 506] | 8 | 392 | 81.4 | 572 | 10
